Source: patent publication US20120035187A1 (priority 2009, published 2012)

How the values were obtained:
[1] = test system: ICR mice injected with amyloid β fragment; assay: Novelty object recognition test, mouse injected with amyloid β fragment (Alzheimer's dementia model); type: in vivo; conditions: for adverse effect / novelty object recognition test (in words): mice injected with amyloid β fragment; for adverse effect: i.p. once a day over 13 days; for novelty object recognition test (in words): vs amyloid β fragment alone; for Index for object discrimination: mouse administered with amyloid β fragment
Method: One hundred of ICR mice (male, five weeks of age, body weight of 25 to 30 g, commercialized by Charles Liver Laboratories Japan Inc., Kanagawa, Japan) were randomly divided into 10 groups, each consisting 10 heads, and raised separately until the experiment was terminated. […] A micro syringe with an […] stainless needle (3 mm length) was used for injection. The injection site was determined by confirming the staining at right-and-left lateral ventricles of the frontal section, dorsal third ventricle, and ventral third ventricle by injecting an Evans' Blue solution (0.3 μg/0.3 μl) in place of the solution of amyloid β fragment.
The test, which consists of three parts of acclimation, practicing trial, and holding trial, was operated at six to eight days after administering amyloid β fragment into the subjects' ventricles. The experiment apparatus (40 cm in depth, 30 cm in width and 30 cm in height), in which the floor was paved with wood tips, was placed in a noiseless place under an illumination of about 1,000 lux. On the 6th day after the administration, a mouse was placed in the center of the apparatus without seeking object and allowed to seek freely for 10 minutes (acclimation). After 24 hours (on the 7th day after the administration), two objects (objects A and B) were placed in the apparatus at a position 10-cm apart from the lateral side, and the mouse was placed in the center of the apparatus and allowed to seek freely for 10 minutes (practicing trial). After 24 hours (on 8th day after the administration), object A (memorized object) sought by the mouse on the previous day was placed at the same position of object A as placed on the previous day, and object C (novel object) different from object B used on the previous day […] of object B as placed on the previous day, and then the mouse was placed in the center of the apparatus and allowed to seek freely for 10 minutes (holding trial). When the mouse directed its muffle close to the object within 2 cm apart from the object or allowed its muffle to contact with the object, the mouse was judged to be seeking, and the seeking time thereof was measured with a stopwatch. The object discrimination index [={(seeking time for novel object)−(seeking time for memorized object)}/{(seeking time for novel object)+(seeking time for memorized object)}] was calculated. The object discrimination index means the ratio of increase in seeking time for novel object to the total seeking time, which becomes longer when the memory of the once sought object is more strongly held and becomes shorter when the memory is more weakly held.

[2] = test system: primary neuron (neuron, astrocyte and microglia) prepared from brain cortex of a rat fetus; assay: Hydrogen peroxide disorder in primary neuron; type: cell-based; conditions: concrete data not shown
Description: (§1) Though concrete data is not shown, using primary neuron (neuron, astrocyte and microglia) prepared from brain cortex of a rat fetus in place of PC12-HS cells, the influence of NK-4, NK-26, NK-234, NK-19 and NK-150 on amyloid β fragment disorder and hydrogen peroxide disorder was investigated.

[3] = test system: brain ischemia rat; assay: Brain ischemia (cerebral infarction model) rat: behavioral score; type: in vivo; set-up: Behavioral score: scale not given here; conditions: for behavioral score (in words): Experiment 13, cerebral-infarction-model rat, administered through caudal vein
Method: Male SD rats, seven- to eight-weeks of age and 280 to 330 g body weight, commercialized by Charles River Laboratories Japan Inc., Kanagawa, Japan, were allocated randomly into seven groups, consisting of five to seven rats in each group. Among the seven groups, five groups were subjected to the following surgery as test groups: Rats in the test groups were subcutaneously administered with 0.3 mg/kg body weight of atropine, commercialized by Fuso Pharmaceutical industries, Osaka, Japan. Successively, each rat was anesthetized by administrating 600 mg/kg body weight of urethane, commercialized by Sigma-Aldrich Co., MO, USA, and 60 mg/kg-weight of […], commercialized by Sigma-Aldrich Co., MO, USA, into the peritoneal cavity, and fixed to a fixator under voluntary breathing conditions. The right carotid artery bifurcation was exposed by median incision of the neck without damaging vagus nerve. The common carotid artery and external carotid artery around the right carotid artery bifurcation were exfoliated from surrounding connective tissue and wired respectively using “NESCOSUTURE”, a 6-0 nylon string commercialized by Alfresa Pharma Corporation, Osaka, Japan. Then, the internal carotid artery was tied with the 6-0 nylon string for fixation after insertion of an obturator. Successively, the common carotid artery was incised and a silicon-coated obturator, prepared by a 4-0 nylon string, commercialized by Doccol Corp., CA, USA, was inserted from the common carotid artery into the internal carotid artery at a distance of about 16 mm, and clipped to the common carotid artery (see, for example, Koizumi et al., Cerebral stroke, Vol. 8, No. 1, pp. 1-8 (1986)). By the method, the silicon-coated tip of obturator was inserted through the right carotid artery bifurcation to frontal cerebral artery at a distance of about 2 mm and obstructs the inlet of the medial cerebral artery. After two hours occlusion of the medial cerebral artery while keeping the rat on an isothermal pad controlled at a temperature of 37° C., blood was allowed to reperfuse by withdrawing the obturator. Then, the internal carotid artery was tied near the carotid artery bifurcation for preventing the bleeding from the incised part of the common carotid artery. In the model, the blood was reperfused through the left carotid artery, vertebral artery, basilar artery, frontal and backward communication artery because the right carotid artery was clipped.
NK-4, NK-19, NK-53, NK-100, and NK-557, used in the test, were respectively dissolved in DMSO (product No. “D8418”, commercialized by Sigma-Aldrich Co., MO, USA) to give a concentration of 5 mg/ml and filtrated using “MILLEX-LG SLLG025SS”, a DMSO-resistant membrane filter commercialized by Millipore, MA, USA. Stock […], and then 4 ml/kg body weight of any of the resulting diluted solutions was administered ([…]) to five test groups (test groups 1 to 5) consisting of five or seven rats, through their caudal veins at both after one hour from the occlusion of middle cerebral artery and immediately after initiating reperfusion. After 24 hours from the reperfusion of blood, behavioral and histological evaluations of rats were carried out according to the following procedures: As a control group 1, five rats in one group out of the remaining two groups were subjected to the same surgery as the rats in the test groups 1 to 5, and administered with 4 ml/kg body weight of PBS free of any of the compounds through their caudal veins at both after one hour of the medial cerebral artery occlusion and immediately after the start of reperfusion. As the control group 2, six rats in the remaining one group were subjected to a sham surgery, in which common, external, and internal carotid arteries were clipped and then reperfused their blood without inserting the obturator to each medial cerebral artery. […]

[4] = test system: primary neuron (neuron, astrocyte and microglia) prepared from brain cortex of a rat fetus; assay: Amyloid β fragment disorder in primary neuron; type: cell-based; conditions: concrete data not shown
Description: as §1

[5] = 500 μg/kg body weight i.p. once a day
[6] = brain ischemia rats (embolus, 2 h occlusion, reperfusion), 100 p g/kg body weight via caudal vein 1 h after occlusion and at reperfusion, 24 hours after reperfusion, maximum score 6
[7] = embolus rat, dose 100 μg per kg body weight, caudal vein

Compound	adverse effect [1]	novelty object recognition test (in words) [1, 5]	Index for object discrimination ([1]; dose 50 μg/kg body weight)	Index for object discrimination ([1]; dose 500 μg/kg body weight)	suppressing hydrogen peroxide disorder [2]	behavioral score (in words) [3]	Behavioral score [3, 6]	Behavioral score ([3]; embolus rat, dose 25 μg per kg body weight, caudal vein)	Behavioral score ([3]; embolus rat, dose 50 μg per kg body weight, caudal vein)	Behavioral score [3, 7]	Behavioral score ([3]; embolus rat, dose 200 μg per kg body weight, caudal vein)	Behavioral score ([3]; embolus rat, dose 300 μg per kg body weight, caudal vein)	suppressing amyloid β fragment disorder [4]	novelty object recognition test (in words) ([1]; 50 μg/kg body weight i.p. once a day)	Index for object discrimination ([1]; dose 5 μg/kg body weight)	Behavioral score ([3]; embolus rat, dose 1 μg per kg body weight, caudal vein)	Behavioral score ([3]; embolus rat, dose 10 μg per kg body weight, caudal vein)
CCN1C=CC(=CC=C(C=Cc2cc[n+](CC)c3ccccc23)c2cc[n+](CC)c3ccccc23)c2ccccc21.[I-].[I-] [NK-4]	No adverse effect	significant improvement	0.15 ± 0.07	0.41 ± 0.08	actions of suppressing	significantly improved	2.9 ± 0.2	4.5 ± 0.6	3.3 ± 0.4	2.6 ± 0.2	3.7 ± 0.4	4.2 ± 0.5	actions of suppressing				
CCCCN1C=C/C(=C/C=C(/C=C/c2cc[n+](CCCC)c3ccccc23)c2cc[n+](CCCC)c3ccccc23)c2ccccc21 [NK-26]	No adverse effect		0.19 ± 0.07	0.11 ± 0.08	actions of suppressing	significantly improved				4.3 ± 0.4			actions of suppressing	significant improvement	0.05 ± 0.08	4.4 ± 0.4	3.44 ± 0.6
CCN1/C(=C/C=C(/C=C/c2sc3ccccc3[n+]2CC)c2sc3ccccc3[n+]2CC)Sc2ccccc21.[I-].[I-] [NK-100]							2.4 ± 0.2										
CCCN1C=CC(=CC=C(C=Cc2cc[n+](CCC)c3ccccc23)c2cc[n+](CCC)c3ccccc23)c2ccccc21.[I-].[I-] [NK-234]	No adverse effect	significant improvement		0.29 ± 0.07	actions of suppressing								actions of suppressing				
CC[n+]1ccccc1/C=C/c1ccc(N(C)C)cc1 [NK-557]							2.9 ± 0.3										
